This experiment relates to hydrozoas. The experiment can be described thus: Experimental Example 1: effect of antifouling agent for a fishnet, nets immersed in the sea off Konbumori in Hokkaido. The experiment is classed as in vivo. The settings on record: conclusion from Table 3. From the text: The antifouling agents for […] shown in Examples 3-10 and Comparative Examples 1 and 2 were respectively applied to Tetoron unknotted nets (1000/26, 3 sun mesh) by immersion and air-dried. The nets were retained at about 15 meters underwater in the sea off Konbumori in Hokkaido for 4 months from August 1995. The adhesion organisms were mostly hydrozoas. As Comparative Example 3, the evaluation results without a treatment with an antifouling agent for a […] shown. • Evaluation A: Area of fouling of […], 0%, no adhesion organisms. • Evaluation B: Area of fouling of […], 0-10%, small amount of adhesion organisms to the extent practically acceptable. • Evaluation C: Area of fouling of […], 10-50%, great amount of adhesion organisms, unpractical as a […]. • Evaluation D: Area of fouling of […], 50% or more, markedly greater amount of adhesion organisms.

Consider 1 substance from patent EP0877061A1, “TRIPHENYLBORANE-ROSIN AMINE ADDUCT AND USE OF THE SAME” (Yoshitomi Fine Chemicals, Ltd., priority 1996, dated 1997).

Consider “triphenylborane-dehydroabiethylamine adduct [Example 1]”, for which the “antifouling effect against coelenterates such as hydrozoas and obelia (in words)” value is “extremely strong, long-lasting and practical antifouling effect”.
